Earlier results, collected in US20170027908A1, “Pharmaceutical Composition” (CIPLA Limited, priority 2011, published 2017).

Assays:
[1] = in vivo
[2] = tested on: airway hyperresponsiveness; conditions: as compared to fluticasone propionate

For `C[C@@H]1C[C@H]2[C@@H]3C[C@H](F)C4=CC(=O)C=C[C@]4(C)[C@@]3(F)[C@@H](O)C[C@]2(C)[C@@]1(OC(=O)c1ccco1)C(=O)SCF` [fluticasone furoate], the elimination half life [1] is listed as 15.1 h and the “prolonged protection against airway hyperresponsiveness” value [2] is listed as “up to 26 hours”.
